Legend:
[1] = biological target: T1, human HIPK2 (Homo sapiens, UniProt Q9H2X6); experiment: HIPK2 enzyme assay (ADP-Glo); format: biochemical; conditions: ADP-Glo, ATP 5 μM; read-out: HIPK2 IC50
T1 construct: Recombinant human HIPK2 (1-640); GST (N); purchased SignalChem H04-11BG; host or cells: Sf9 insect cells
Experimental: The ability of compounds to inhibit human HIPK2 kinase activities was determined using a commercially available ADP-Glo™ Kinase Assay kit (Promega, Cat #V9102) according to the manufacturer's protocol.
Recombinant human HIPK2 (1-640) (expressed in Sf9 insect cells with an N-terminal GST tag) was purchased from SignalChem (Cat #H04-11BG). Recombinant full length human MBP (expressed in E. Coli cells with an N-terminal GST tag) was purchased from SignalChem (Cat #M42-54G). This assay, run in a 384-well plate format, is a generic method for measuring kinase activities using an ADP-Glo Kinase Assay Kit. The basic assay procedure involves two steps: (1) Enzymatic step: inhibitors are incubated with the kinase and then ATP (included in the ADP-Glo Kinase Assay Kit) and the MBP protein are added to start the enzymatic reaction; (2) Detection step: after the kinase reaction, first ADP-Glo™ Reagent is added to terminate the kinase reaction and deplete the remaining ATP. Second, the Kinase Detection Reagent is added to simultaneously convert ADP to ATP and allow the newly synthesized ATP to be measured using a luciferase/luciferin reaction. The light generated is measured using a luminometer.
(§1) Briefly, HIPK2 (1 nM) in the enzymatic buffer solutions (40 mM Tris, pH 7.5, 20 mM MgCl2, 0.1 mg/ml BSA, 50 μM DTT) were mixed with various concentrations of inhibitors (dissolved in 100% DMSO). These solutions were incubated for 30 minutes at 25° C., and subsequently a mixture of substrate peptide and ATP was added with the final peptide and ATP concentrations at 0.05 mg/ml and 5 μM, respectively. The final reaction mixture of enzyme-substrate-ATP-compound was incubated for 90 minutes at 25° C.
(§2) Afterwards ADP-Glo™ Reagent was added and the mixture was incubated at 25° C. for 60 minutes. Then Kinase Detection Reagent was added, and the final mixture was incubated at 25° C. for 60 minutes. The luminescence signal of the final solution was measured on an Envision instrument (PerkinElmer). The percent (%) inhibition at each concentration of a compound is calculated relative to the luminescence signal in the Max and Min control wells contained within each assay plate. […] The concentrations and percent inhibition values for a test compound are plotted and the concentration of the compound required to achieve 50% inhibition (IC50) is determined with a four-parameter logistic dose response equation.

[2] = biological target: T2, human CLK1 (Homo sapiens, UniProt P49759); experiment: CLK1 enzyme assay (ADP-Glo); format: biochemical; conditions: ADP-Glo, ATP 10 μM; read-out: CLK1 IC50
T2 construct: Recombinant human CLK1 (129-end); GST (N); purchased SignalChem C57-11G; host or cells: Sf9 insect cells
Experimental: The ability of compounds to inhibit human CLK1 kinase activities was determined using a commercially available ADP-Glo™ Kinase Assay kit (Promega, Cat #V9102) according to the manufacturer's protocol.
Recombinant human CLK1 (129-end) (expressed in Sf9 insect cells with an N-terminal GST tag) was purchased from SignalChem (Cat #C57-11G). Recombinant full length human MBP (expressed in E. Coli cells with an N-terminal GST tag.) was purchased from SignalChem (Cat #M42-54G). This assay, run in a 384-well plate format, is a generic method for measuring kinase activities using an ADP-Glo Kinase Assay Kit. The basic assay procedure involves two steps: (1) Enzymatic step: inhibitors are incubated with the kinase and then ATP (included in the ADP-Glo Kinase Assay Kit) and the MBP protein are added to start the enzymatic reaction; (2) Detection step: after the kinase reaction, first ADP-Glo™ Reagent is added to terminate the kinase reaction and deplete the remaining ATP. Second, the Kinase Detection Reagent is added to simultaneously convert ADP to ATP and allow the newly synthesized ATP to be measured using a luciferase/luciferin reaction. The light generated is measured using a luminometer.
as §1, with “Briefly, CLK1 (16” for “Briefly, HIPK2 (1”, “at 2 μM” for “at 0.05 mg/ml”, “and 10” for “and 5”, “for 60” for “for 90”
as §2, with “added” for “added,”

T1 sequence (Q9H2X6 1-640): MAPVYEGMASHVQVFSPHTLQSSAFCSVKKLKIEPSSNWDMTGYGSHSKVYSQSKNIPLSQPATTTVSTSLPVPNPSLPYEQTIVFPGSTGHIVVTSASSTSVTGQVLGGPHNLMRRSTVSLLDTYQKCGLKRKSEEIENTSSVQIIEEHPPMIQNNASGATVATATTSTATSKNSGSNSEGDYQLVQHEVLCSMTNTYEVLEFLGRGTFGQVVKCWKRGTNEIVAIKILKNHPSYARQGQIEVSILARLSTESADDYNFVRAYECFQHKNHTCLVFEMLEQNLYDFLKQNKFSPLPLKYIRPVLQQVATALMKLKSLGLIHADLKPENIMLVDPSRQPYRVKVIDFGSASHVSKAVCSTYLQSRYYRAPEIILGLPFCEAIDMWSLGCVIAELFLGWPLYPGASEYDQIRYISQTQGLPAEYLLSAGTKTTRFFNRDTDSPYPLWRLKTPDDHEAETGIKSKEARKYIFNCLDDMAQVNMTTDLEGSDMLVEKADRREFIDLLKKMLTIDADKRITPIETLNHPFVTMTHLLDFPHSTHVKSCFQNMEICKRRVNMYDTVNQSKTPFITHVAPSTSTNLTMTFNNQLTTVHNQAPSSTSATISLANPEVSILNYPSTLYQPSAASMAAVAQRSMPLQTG
T2 sequence (P49759 129-484 limits assumed): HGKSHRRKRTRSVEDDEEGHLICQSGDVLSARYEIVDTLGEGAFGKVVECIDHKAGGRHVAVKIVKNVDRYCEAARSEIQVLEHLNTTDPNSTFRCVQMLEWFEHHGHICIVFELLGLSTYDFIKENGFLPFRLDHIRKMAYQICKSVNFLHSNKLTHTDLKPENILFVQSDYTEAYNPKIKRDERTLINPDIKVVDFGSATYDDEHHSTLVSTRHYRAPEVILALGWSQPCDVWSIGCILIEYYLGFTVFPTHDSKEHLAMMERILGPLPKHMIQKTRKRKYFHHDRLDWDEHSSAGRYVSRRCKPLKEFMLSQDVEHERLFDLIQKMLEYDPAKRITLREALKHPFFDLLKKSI

| Structure (SMILES) | IC50 [1] | IC50 [2] |
| --- | --- | --- |
| CN(C1=N/C(=C\c2ccc3c(c2)OCO3)C(=O)N1)c1ccccc1 [Example 1, (Z)-5-(benzo[d][1,3]dioxol-5-ylmethylene)-2-(methyl(phenyl)amino)-3,5-dihydro-4H-imidazol-4-one] | > 10000 nM | 100 to 1000 nM |
| O=C1/C(=C/c2ccc3c(c2)OCO3)N=C(N(Cc2ccccc2)c2ccccc2)N1Cc1ccccc1 [Example 2, (Z)-5-(benzo[d][1,3]dioxol-5-ylmethylene)-3-benzyl-2-(benzyl(phenyl)amino)-3,5-dihydro-4H-imidazol-4-one] | > 10000 nM | 1000 to 10000 nM |
| CN1C(=O)/C(=C/c2ccc3c(c2)OCO3)N=C1N(C)c1ccccc1 [Example 3, (Z)-5-(benzo[d][1,3]dioxol-5-ylmethylene)-3-methyl-2-(methyl(phenyl)amino)-3,5-dihydro-4H-imidazol-4-one] | > 10000 nM | 1000 to 10000 nM |
| O=C1NC(Nc2ccccc2)=N/C1=C\c1ccc2ncsc2c1 [Example 6, (Z)-5-(benzo[d]thiazol-6-ylmethylene)-2-(phenylamino)-3,5-dihydro-4H-imidazol-4-one] | 100 to 1000 nM | < 100 nM |
| CN(C1=N/C(=C\c2ccc3ncsc3c2)C(=O)N1)c1ccccc1 [Example 7, (Z)-5-(benzo[d]thiazol-6-ylmethylene)-2-(methyl(phenyl)amino)-3,5-dihydro-4H-imidazol-4-one] | 1000 to 10000 nM | 100 to 1000 nM |
| CN(C1=N/C(=C\c2ccc3c(c2)OCCO3)C(=O)N1)c1ccccc1 [Example 8, (Z)-5-((2,3-dihydrobenzo[b][1,4]dioxin-6-yl)methylene)-2-(methyl(phenyl)amino)-3,5-dihydro-4H-imidazol-4-one] | > 10000 nM | 1000 to 10000 nM |
| O=C1NC(Nc2ccccc2)=N/C1=C\c1ccc(=O)[nH]c1 [Example 9, (Z)-5-((5-oxo-2-(phenylamino)-1,5-dihydro-4H-imidazol-4-ylidene)methyl)pyridin-2(1H)-one] | > 10000 nM | 100 to 1000 nM |
| O=C1NC(N(CC2CC2)c2ccccc2)=N/C1=C\c1ccc2c(c1)OCO2 [Example 10, (Z)-5-(benzo[d][1,3]dioxol-5-ylmethylene)-2-((cyclopropylmethyl)(phenyl)amino)-3,5-dihydro-4H-imidazol-4-one] | > 10000 nM | 100 to 1000 nM |
| CN(CC1CC1)C1=N/C(=C\c2ccc3c(c2)OCO3)C(=O)N1 [Example 11, (Z)-5-(benzo[d][1,3]dioxol-5-ylmethylene)-2-((cyclopropylmethyl)(methyl)amino)-3,5-dihydro-4H-imidazol-4-one] | > 10000 nM | 100 to 1000 nM |
| COc1ccc(N(C)C2=N/C(=C\c3ccc4c(c3)OCO4)C(=O)N2)cc1 [Example 12, (Z)-5-(benzo[d][1,3]dioxol-5-ylmethylene)-2-((4-methoxyphenyl)(methyl)amino)-3,5-dihydro-4H-imidazol-4-one] | > 10000 nM | 100 to 1000 nM |
| O=C1NC(N(CCO)c2ccccc2)=N/C1=C\c1ccc2c(c1)OCO2 [Example 13, (Z)-5-(benzo[d][1,3]dioxol-5-ylmethylene)-2-((2-hydroxyethyl)(phenyl)amino)-3,5-dihydro-4H-imidazol-4-one] | 1000 to 10000 nM | 100 to 1000 nM |
| O=C1NC(Nc2ccccc2)=N/C1=C\c1ccc2scnc2c1 [Example 14, (Z)-5-(benzo[d]thiazol-5-ylmethylene)-2-(phenylamino)-3,5-dihydro-4H-imidazol-4-one] | > 10000 nM | > 10000 nM |
| O=C1NC(Nc2ccccc2)=N/C1=C\c1cncs1 [Example 15, (Z)-2-(phenylamino)-5-(thiazol-5-ylmethylene)-3,5-dihydro-4H-imidazol-4-one] | > 10000 nM | > 10000 nM |
| O=C1NC(Nc2ccccc2)=N/C1=C\c1ccc2nccnc2c1 [Example 16, (Z)-2-(phenylamino)-5-(quinoxalin-6-ylmethylene)-3,5-dihydro-4H-imidazol-4-one] | 1000 to 10000 nM | < 100 nM |
| CN(C1=N/C(=C\c2ccc3c(c2)OC(F)(F)O3)C(=O)N1)c1ccccc1 [Example 17, (Z)-5-((2,2-difluorobenzo[d][1,3]dioxol-5-yl)methylene)-2-(methyl(phenyl)amino)-3,5-dihydro-4H-imidazol-4-one] | > 10000 nM | > 10000 nM |
| CN(C1=N/C(=C\c2ccc3c(c2)OCO3)C(=O)N1)c1cccnc1 [Example 18, (Z)-5-(benzo[d][1,3]dioxol-5-ylmethylene)-2-(methyl(pyridin-3-yl)amino)-3,5-dihydro-4H-imidazol-4-one] | > 10000 nM | 100 to 1000 nM |
| CN(CC1CC1)C1=N/C(=C\c2ccc3c(c2)OCCO3)C(=O)N1 [Example 19, (Z)-2-((cyclopropylmethyl)(methyl)amino)-5-((2,3-dihydrobenzo[b][1,4]dioxin-6-yl)methylene)-3,5-di hydro-4H-imidazol-4-one] | > 10000 nM | 1000 to 10000 nM |
| CN(CCN1CCOCC1)C1=N/C(=C\c2ccc3c(c2)OCO3)C(=O)N1 [Example 20, (Z)-5-(benzo[d][1,3]dioxol-5-ylmethylene)-2-(methyl(2-morpholinoethyl)amino)-3,5-dihydro-4H-imidazol-4-one] | > 10000 nM | 100 to 1000 nM |
| COc1ccccc1N(C)C1=N/C(=C\c2ccc3c(c2)OCO3)C(=O)N1 [Example 21, (Z)-5-(benzo[d][1,3]dioxol-5-ylmethylene)-2-((2-methoxyphenyl)(methyl)amino)-3,5-dihydro-4H-imidazol-4-one] | > 10000 nM | 1000 to 10000 nM |
| O=C1NC(N(Cc2ccccc2)c2ccccc2)=N/C1=C\c1ccc2c(c1)OCO2 [Example 22, (Z)-5-(benzo[d][1,3]dioxol-5-ylmethylene)-2-(benzyl(phenyl)amino)-3,5-dihydro-4H-imidazol-4-one] | > 10000 nM | 1000 to 10000 nM |
| CN(Cc1ccccc1)C1=N/C(=C\c2ccc3c(c2)OCO3)C(=O)N1 [Example 23, (Z)-5-(benzo[d][1,3]dioxol-5-ylmethylene)-2-(benzyl(methyl)amino)-3,5-dihydro-4H-imidazol-4-one] | > 10000 nM | 100 to 1000 nM |
| CN(C1=N/C(=C\c2ccc3ncsc3c2)C(=O)N1)c1ccc(Cl)cc1 [Example 24, (Z)-5-(benzo[d]thiazol-6-ylmethylene)-2-((4-chlorophenyl)(methyl)amino)-3,5-dihydro-4H-imidazol-4-one] | 100 to 1000 nM | 100 to 1000 nM |
| O=C1NC(NCc2ccccc2)=N/C1=C\c1ccc2ncsc2c1 [Example 31, (Z)-5-(benzo[d]thiazol-6-ylmethylene)-2-(benzylamino)-3,5-dihydro-4H-imidazol-4-one] | 100 to 1000 nM |  |
| O=C1NC(NCC2CC2)=N/C1=C\c1ccc2ncsc2c1 [Example 34, (Z)-5-(benzo[d]thiazol-6-ylmethylene)-2-((cyclopropylmethyl)amino)-3,5-dihydro-4H-imidazol-4-one] | 1000 to 10000 nM |  |

— patent publication US12643887B2, “Heterocyclic derivatives with cardiomyocyte proliferation activity for treatment of heart diseases” (Tongji University, priority 2019, dated 2026)
